Test results: ChEMBL document CHEMBL2073755, “TP-search Transporter Database” (Jpn Pharmacol Ther, 2001)

Assays:
[1] = target: T1, Solute carrier family 22 member 7 (Rattus norvegicus, UniProt Q5RLM2); assay: TP_TRANSPORTER: inhibition of Salicylate uptake in Oat2-expressing LLC PK1 cells; format: functional, cell-based
T1 sequence (Q5RLM2 whole entry): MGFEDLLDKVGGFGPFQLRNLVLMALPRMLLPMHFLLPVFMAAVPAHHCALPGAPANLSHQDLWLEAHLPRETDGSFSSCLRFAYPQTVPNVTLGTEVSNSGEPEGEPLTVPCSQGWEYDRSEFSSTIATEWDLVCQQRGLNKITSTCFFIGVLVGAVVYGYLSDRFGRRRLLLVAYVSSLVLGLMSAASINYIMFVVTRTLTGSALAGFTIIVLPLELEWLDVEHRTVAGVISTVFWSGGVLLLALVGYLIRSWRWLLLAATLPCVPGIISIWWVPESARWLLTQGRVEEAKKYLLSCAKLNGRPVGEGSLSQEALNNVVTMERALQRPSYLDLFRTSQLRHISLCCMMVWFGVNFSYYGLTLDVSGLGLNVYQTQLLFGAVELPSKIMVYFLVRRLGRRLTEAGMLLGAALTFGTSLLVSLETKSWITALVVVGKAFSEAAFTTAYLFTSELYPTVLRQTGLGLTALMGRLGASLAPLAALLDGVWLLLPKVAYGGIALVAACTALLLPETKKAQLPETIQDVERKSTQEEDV

[2] = target: T2, Oat2 (Solute carrier family 22 member 7) (Rattus norvegicus, UniProt Q5RLM2); assay: (§1) TP_TRANSPORTER: uptake in Oat2-expressing LLC PK1 cells; format: functional, cell-based; conditions: pig
T2 sequence (Q5RLM2 whole entry): T1 sequence (Q5RLM2 whole entry)

[3] = substrate: Nc1ccn([C@H]2CC[C@@H](CO)O2)c(=O)n1; assay: as §1; format: functional, cell-based
[4] = substrate: O=C(O)c1ccccc1O; assay: cells, lysate or membranes named

With `COc1ccc(Cl)cc1C(=O)NCCc1ccc(S(=O)(=O)NC(=O)NC2CCCCC2)cc1` [GLYBURIDE] as the molecule, how does the Ki [1] read?
The Ki was 12.3 µM.

`CC1(C)C(/C=C/C=C/C=C/C=C2\N(CCCCS(=O)(=O)O)c3ccc4ccccc4c3C2(C)C)=[N+](CCCCS(=O)(=O)[O-])c2ccc3ccccc3c21` [INDOCYANINE GREEN] was tested. Which Ki [1] did it give?
The Ki was 1.15 µM.

`COc1ccc2c(c1)c(CC(=O)O)c(C)n2C(=O)c1ccc(Cl)cc1` [INDOMETHACIN] was tested. Which Km [2] did it give?
Its Km is 0.366 µM.

`CC(C(=O)O)c1cccc(C(=O)c2ccccc2)c1` (configuration not stated) [KETOPROFEN] was tested. Which Ki [1] did it give?
The Ki was 1.84 µM.

With `Cc1cn([C@H]2C[C@H](N=[N+]=[N-])[C@@H](CO)O2)c(=O)[nH]c1=O` [ZIDOVUDINE] as the molecule, how does the Km [2] read?
Its Km is 26 µM.

B1: Solute carrier family 22 member 7 (Rattus norvegicus) (protein)
chain: T1 sequence (Q5RLM2 whole entry)
How did the Km [3] turn out when B1 was run?
Its Km is 3000 µM.

And the Km [4]?
Its Km is 81.2 µM.
